The source of these data is BindingDB's records for doi:10.1021/jm00012a012 (Wellcome Research Laboratories, 1995).

A short description of this experiment: Activity against adenosine diphosphate (ADP) induced platelet aggregation.
In turn, `CCCCCCCCCCCCCCCCOc1c(OC)cc(C(=O)OCCCC[N+](C)(C)C)cc1OC` [[4-(4-Hexadecyloxy-3,5-dimethoxy-benzoyloxy)-butyl]-trimethyl-ammonium; iodide] yielded a half-maximal inhibitory concentration (IC50) of 2.9 µM.

The compound `CCCCCCOc1c(C)cc(C(=O)OCCCC[N+](C)(C)C)cc1C` [[4-(4-Hexyloxy-3,5-dimethyl-benzoyloxy)-butyl]-trimethyl-ammonium; iodide] displayed a half-inhibitory concentration (IC50) of 12 µM.

Compound `CCCCCCOc1c(OC)cc(C(=O)OCc2ccccc2C[N+](C)(C)C)cc1OC` [[2-(4-Hexyloxy-3,5-dimethoxy-benzoyloxymethyl)-benzyl]-trimethyl-ammonium; iodide] displayed a half-inhibitory concentration (IC50) of 16 µM.

`CCCCCCOc1c(Cl)cc(C(=O)OCCCC[N+](C)(C)C)cc1OC` [[4-(3-Chloro-4-hexyloxy-5-methoxy-benzoyloxy)-butyl]-trimethyl-ammonium; iodide] gave an IC50 of 9.6 µM.

`CCCCCCOc1ccc(C(=O)OCCCC[N+](C)(C)C)cc1` [[4-(4-Hexyloxy-benzoyloxy)-butyl]-trimethyl-ammonium; iodide] displayed a half-inhibitory concentration (IC50) of 22.5 µM.

As to `CCCCCCOc1c(OC)cc(CCCCc2scnc2C)cc1OC` [5-[4-(4-Hexyloxy-3,5-dimethoxy-phenyl)-butyl]-4-methyl-thiazole], half-maximal inhibition (IC50) was put at 13.5 µM.

Consider `CCCCCCCCOc1c(OC)cc(C(=O)OCCCC[N+](C)(C)C)cc1OC` [[4-(3,5-Dimethoxy-4-octyloxy-benzoyloxy)-butyl]-trimethyl-ammonium; iodide], for which the midpoint of inhibition, the IC50, lay at 13.8 µM.

`CCCCCCCCCCOc1c(OC)cc(C(=O)OCC[N+](C)(C)C)cc1OC` [[2-(4-Decyloxy-3,5-dimethoxy-benzoyloxy)-ethyl]-trimethyl-ammonium; iodide]: the concentration for half-maximal inhibition (IC50) amounted to 2 µM.
